Converted amounts (≈) assume the structure as drawn. Where two headings read alike, the source gives them in different places.
Tests used:
[1] = tested on: HCT116 MTAP-deleted cell lines; test: Cell viability assay (CellTiter-Glo, 7 days), HCT116 MTAP-deleted; type: cell-based; conditions: for Selectivity: HCT116 WT CC50 versus HCT116 MTAP^del CC50; for plasma-adjusted CC50 (paCC50): paCC50 = CC50-HCT116-MTAP^del * (% free CCM/% free human plasma); for CC50: Homo sapiens, HCT116 MTAP-deleted
Method in brief: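 Each PRMT5 inhibitor was tested as a dose response alongside tool compounds on the same plate. Incubation ran 7 days at 37 °C under 5% CO2, after which CellTiter-Glo luminescence was recorded and CC50 calculated.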

[2] = PBS solubility (kinetic solubility from DMSO stocks); type: physicochemical; conditions: 22 °C, aqueous buffer, kinetic from dmso stock; 1x PBS pH 7.4, 1.0% DMSO, 24-hour incubation at ambient temperature
Method in brief: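 Kinetic solubility in 1× PBS pH 7.4 with 1.0% final DMSO, maximum theoretical concentration 100 μM from 10 mM stock. After 24 h at ambient temperature (20.8-24.0 °C) the samples were vacuum-filtered and filtrates quantified by nitrogen detection against a calibration curve. Values were background-corrected and reported in μM and μg/mL.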

[3] = Pharmacokinetics in cassette in male Sprague-Dawley rats for Kp measurement; type: in vivo; conditions: 1 mg/kg, intravenous
Experimental: E.1 Test Animal: Male Sprague-Dawley Rats (225-300 g) with Indwelling Bilateral Jugular Vain Cannula (JVC/JVC) or Single Jugular Vein Cannula (JVC)
E.2 Pharmaceutical Formulation and Administration
Test compound was dissolved in the vehicle of 10% DMSO, 10% ethanol, 40% polyethylene glycol 300, and 40% propylene glycol to get 1 mg/mL test compound solution. The compound was administered by intravenous administration at a dose of 1 mL/kg. Fasting was not required.
• Anticoagulant: K2EDTA • Volume: approximately 225 μL blood at each bleed • Jugula vein via syringe and needle or another method (non-terminal samples) or exsanguination (cardiac puncture) under isoflurane (or CO2 inhalation if isoflurane is unavailable) anesthesia (terminal time points). Blood samples were collected into K2EDTA tubes • Tissue collection and processing: following the terminal blood collection, the brain and CSF were collected from each animal.

[4] = tested on: Symmetric Di-methyl Arginine (SDMA) signal (PRMT5 inhibition) in HCT116 MTAP-deleted cells; test: Symmetric di-methyl arginine image-based high content screen assay (SDMA assay), HCT116 MTAP-deleted; type: cell-based; conditions: for EC50: Homo sapiens, HCT-116, HCT116 MTAP-deleted, class symbols
Method in brief: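 Read-out is imaging of per-cell mean SDMA immunofluorescence (Alexa 488), with cells segmented by DAPI. Cells, MTAP-deleted or wild-type HCT116, were exposed to compound for 3 days at 37 °C before fixation. EC50 derived by 4-parameter non-linear logistic regression.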

[5] = HCT-116, 168 h, 7 days of treatment, CTG, read-out: CC50-HCT116-MTAP^del
[6] = HCT-116, cell viability, class symbols, read-out: CC50
[7] = brain Kp = [brain]/[plasma], rat, read-out: Rat brain Kp
[8] = brain Kpu,u = Kp * (plasma free/rat brain free), read-out: Rat brain Kpu,u
[9] = HCT116 WT vs HCT116 MTAP-deleted
[10] = HCT-116, cell viability assay, class symbols, read-out: CC50
[11] = HCT-116, * Calculated using Low throughput hEQDS

Structure (SMILES) | Selectivity [1] | plasma-adjusted CC50 (paCC50) ([1]; HCT-116) | CC50 [1, 5] | CC50 [1, 6] | solubility at 24 h [2] | Kp [3, 7] | Kp [3, 8] | EC50 selectivity [4, 9] | EC50 [4] | CC50 [1, 10] | EC50 selectivity ([4]; HCT116 WT versus HCT116 MTAP-deleted) | plasma-adjusted CC50 (paCC50) [1, 11]
C[C@H]1CN(C(=O)c2cc3c(cc2F)nc(N)c2cncn23)[C@H]2c3cc(F)c(C(F)F)cc3C[C@H]2O1 (single isomer, unassigned) [Ff-173] | 64 | 1160 nM | 35 nM | < 100 nM | 9.9 µM (≈ 4.81 µg/mL) | 0.12 | 0.03 |  |  |  |  | 
Nc1nc2cnc(C(=O)N3CC4(CC4)C[C@@H]4Oc5cc(C(F)(F)F)ccc5[C@@H]43)cc2n2cncc12 [Ff-648, (4-aminoimidazo[1,5-a]pyrido[3,4-e]pyrazin-8-yl)((4aS,9bS)-7-(trifluoromethyl)-4a,9b-dihydro-2H-spiro[benzofuro[3,2-b]pyridine-3,1′-cyclopropan]-1(4H)-yl)methanone] | 72 | 262 nM | 9 nM |  | 5.1 µM (≈ 2.45 µg/mL) |  |  | 50 | ≤ 1 nM | < 100 nM |  | 
Nc1nc2cnc(C(=O)N3CC[C@H]4C[C@@H]3c3c(F)cc(C(F)(F)F)cc3O4)cc2n2cncc12 (single isomer, unassigned) [Ff-694] | 72 | 120 nM | 10 nM |  | 50.2 µM (≈ 23.7 µg/mL) | 0.29 |  |  |  |  |  | 
Nc1nc2cnc(C(=O)N3CCC[C@@H]4Oc5cc(C(F)(F)F)ccc5[C@@H]43)cc2n2cncc12 [Ff-110, (4-aminoimidazo[1,5-a]pyrido[3,4-e]pyrazin-8-yl)((4aS,9bS)-7-(trifluoromethyl)-3,4,4a,9b-tetrahydrobenzofuro[3,2-b]pyridin-1(2H)-yl)methanone] | 86 | 100 nM | 6 nM | < 100 nM | 1.7 µM (≈ 0.773 µg/mL) | 0.48 | 0.06 |  | ≤ 1 nM |  | 118 | 
Nc1nc2cnc(C(=O)N3CC[C@H]4C[C@@H]3c3ccc(C(F)(F)F)c(F)c3O4)cc2n2cncc12 [Ff-684, (4-aminoimidazo[1,5-a]pyrido[3,4-e]pyrazin-8-yl)((2S,6R)-10-fluoro-9-(trifluoromethyl)-3,4-dihydro-2H-2,6-methanobenzo[b][1,5]oxazocin-5(6H)-yl)methanone] | 93 | 465 nM | 14 nM |  | 28.4 µM (≈ 13.4 µg/mL) |  |  | 121 | ≤ 1 nM | < 100 nM |  | 
Nc1nc2cnc(C(=O)N3CCC[C@@H]4Oc5cc(C(F)(F)F)cc(F)c5[C@@H]43)cc2n2cncc12 (single isomer, unassigned) [Fg-53] | 84 |  | 6 nM |  | 19.9 µM (≈ 9.4 µg/mL) | 0.29 | 0.05 | 85 | ≤ 1 nM | < 100 nM |  | 139 nM
C[C@H]1CN(C(=O)c2cc3c(cc2F)nc(N)c2cncn23)[C@H]2c3ccc(C(F)(F)F)cc3C[C@H]2O1 (single isomer, unassigned) [Ff-81] | 71 |  | 19 nM | < 100 nM | 18.5 µM (≈ 8.98 µg/mL) | 0.17 | 0.04 |  |  |  |  | 591 nM
Nc1nc2cnc(C(=O)N3CCC[C@@H]4Oc5cc(OC(F)(F)F)cc(F)c5[C@@H]43)cc2n2cncc12 (single isomer, unassigned) [Fg-55] | 89 |  | 9 nM |  | 13.7 µM (≈ 6.69 µg/mL) | 0.2 | 0.05 | 114 | ≤ 1 nM | < 100 nM |  | 190 nM
Nc1nc2cc(F)c(C(=O)N3CCC[C@@H]4Oc5cc(C(F)(F)F)ccc5[C@@H]43)cc2n2cncc12 [Ff-104, (4-amino-7-fluoroimidazo[1,5-a]quinoxalin-8-yl)((4aS,9bS)-7-(trifluoromethyl)-3,4,4a,9b-tetrahydrobenzofuro[3,2-b]pyridin-1(2H)-yl)methanone] | 94 |  | 5 nM | < 100 nM | < 1 µM | 0.39 | 0.07 |  |  |  |  | 139 nM
[2H]C1([2H])CC[C@@H]2Oc3cc(C(F)(F)F)ccc3[C@@H]2N1C(=O)c1cc2c(cn1)nc(N)c1cncn12 [Fg-60, (4-aminoimidazo[1,5-a]pyrido[3,4-e]pyrazin-8-yl)((4aS,9bS)-7-(trifluoromethyl)-3,4,4a,9b-tetrahydrobenzofuro[3,2-b]pyridin-1(2H)-yl-2,2-d2)methanone] | 98 |  | 7 nM |  |  |  |  | 87 | ≤ 1 nM | < 100 nM |  | 
Nc1nc2cnc(C(=O)N3CC[C@H]4C[C@@H]3c3ccc(C(F)(F)F)cc3O4)cc2n2cncc12 [Ff-367, (4-aminoimidazo[1,5-a]pyrido[3,4-e]pyrazin-8-yl)((2S,6R)-9-(trifluoromethyl)-3,4-dihydro-2H-2,6-methanobenzo[b][1,5]oxazocin-5(6H)-yl)methanone] | 77 | 199 nM | 12 nM | < 100 nM | 34.9 µM (≈ 15.9 µg/mL) | 0.32 |  |  |  |  |  | 
Nc1nc2cnc(C(=O)N3CCC[C@@H]4Oc5c(ccc(C(F)(F)F)c5F)[C@@H]43)cc2n2cncc12 [Ff-109, (4-aminoimidazo[1,5-a]pyrido[3,4-e]pyrazin-8-yl)((4aS,9bS)-6-fluoro-7-(trifluoromethyl)-3,4,4a,9b-tetrahydrobenzofuro[3,2-b]pyridin-1(2H)-yl)methanone] | 92 | 276 nM | 15 nM | < 100 nM | 2.3 µM (≈ 1.09 µg/mL) | 0.1 | 0.02 |  |  |  |  | 
Cc1ncn2c1c(N)nc1cnc(C(=O)N3CCC[C@@H]4Oc5cc(C(F)(F)F)ccc5[C@@H]43)cc12 [Ff-499, (4-amino-3-methylimidazo[1,5-a]pyrido[3,4-e]pyrazin-8-yl)((4aS,9bS)-7-(trifluoromethyl)-3,4,4a,9b-tetrahydrobenzofuro[3,2-b]pyridin-1(2H)-yl)methanone] | 69 | 168 nM | 13 nM |  | < 1 µM | 0.67 | 0.15 |  |  | < 100 nM |  | 
Nc1nc2cc(F)c(C(=O)N3CCO[C@@H]4Cc5cc(C(F)(F)F)ccc5[C@@H]43)cc2n2cncc12 (single isomer, unassigned) [Ff-82] | 77 | 408 nM | 27 nM | < 100 nM | 17.9 µM (≈ 8.44 µg/mL) | 0.15 | 0.02 |  |  |  |  | 
Nc1nc2cnc(C(=O)N3CC[C@H]4C[C@@H]3c3ccc(OC(F)(F)F)cc3O4)cc2n2cncc12 [Ff-685, (4-aminoimidazo[1,5-a]pyrido[3,4-e]pyrazin-8-yl)((2S,6R)-9-(trifluoromethoxy)-3,4-dihydro-2H-2,6-methanobenzo[b][1,5]oxazocin-5(6H)-yl)methanone] | 71 | 357 nM | 16 nM |  | 16.1 µM (≈ 7.57 µg/mL) |  |  | 108 | 1 to 5 nM | < 100 nM |  | 
C[C@@H]1CN(C(=O)c2cc3c(cc2F)nc(N)c2cncn23)[C@H]2c3cc(F)c(OC(F)(F)F)cc3C[C@H]2O1 (single isomer, unassigned) [Ff-197] | 47 | 217 nM | 15 nM | < 100 nM | < 1 µM | 0.22 | 0.06 |  |  |  |  | 

Reference: patent US12448388B2, “PRMT5 inhibitors and uses thereof” (Gilead Sciences, Inc., priority 2023, dated 2025)
